From EP0144459A1, “Prostaglandins, their preparation and pharmaceutical compositions” (Dr. Willmar Schwabe GmbH & Co., priority 1983, dated 1985)

How the values were obtained:
[1] = test system: isolierte Kaninchenaortastreifen; assay: Contractile effect on isolated rabbit aorta strips, dose-response compared with PGF2α (method of J.R. Vane); parameters: species or system Kaninchen; details: isolated rabbit aorta strip
Description: Zum Beispiel wurde die kontrahierende Wirkung von (15R)-12-epi-PGF2ß an einem isolierten Kaninchenaortastreifen mit der des natürlichen PGF2α verglichen. […] Die Wirkung dieser erfindungsgemäßen Verbindung setzt bei etwa 3-10^-6M/lein (vgl. Abb. 1). In dieser Konzentration ist das (15-S)-Epimere des 12 epi-PGF2ßunwirksam. [drawing]
Abb. 1 Kontraktile Wirkung von (15R)-12-epi-PGF2β (x) und PGF2α (.) auf isolierte Kaninchenaortastreifen in Abhängigkeit von der Dosis. (c = Konzentration; K = Kontraktionskraft) (Gemessen nach: J.R. Vane, Br.J. Pharmacol. Chemother. 23, 360-373 (1964)).

[2] = test system: Langendorff-Herz; isolierte Aorta - Tracheen- und Fundus-Streifen; Kreislauf von Meerschweinchen und Hund; assay: Battery of further pharmacological tests compared with PGF2α: Langendorff heart (coronary flow, heart rate, inotropy); isolated aorta, trachea and fundus strips; circulation of guinea pig and dog (blood pressure, heart rate); details: in all tests of the battery, compared with natural PGF2α
Description: In mehreren anderen Tests wurden (15R)- und (15S)-12-epi-PGF2ß sowie die beiden analogen erfindungsgemäßen 15-Mithylverbindungen mit dem bekannten PGF2α verßlichen. […] Die 15-Methyl-Derivate der 12-epi-PGF2β zeigen analoge Unterschiede der Wirkungsqualität der jeweiligen 15Rund l5S-Epimeren.

SMILES	Wirkungsstärke (kontrahierende Wirkung) im Vergleich zu PGF2α ([1]; dose-response curve runs parallel to that of PGF2α)	minimal effective concentration ([1]; threshold concentration of the contractile effect (Abb. 1), read-out: Konzentration, bei der die kontrahierende Wirkung einsetzt) [µM]	Wirkungsqualität [2]	kontrahierende Wirkung ([1]; at the concentration of about 3-10^-6M/l)
CCCCC[C@@H](O)/C=C/[C@H]1[C@@H](C/C=C\CCCC(=O)O)[C@H](O)C[C@H]1O [(15R)-12-epi-PGF2β, 15R-12-epi-PGF2β]	ca. eine Zehnerpotenz niedrigeren Wirkungsstärke	~3	parallel zu den Wirkungen des natürlichen PGF2α	
CCCCC[C@H](O)/C=C/[C@H]1[C@@H](C/C=C\CCCC(=O)O)[C@H](O)C[C@H]1O [(15S)-12-epi-PGF2β, 12-epi-PGF2β]			PGE2-ähnliche Wirkung	unwirksam
